Data on two molecules can be found in patent EP4116414A1 (Centre National de la Recherche Scientifique, dated 2023).

The term Km denotes the substrate concentration at which the rate is half of its maximum.

Assay [1] has as its target Bacillus subtilis 168 formate dehydrogenase YjgCD heterodimer, wild type (6his-YjgC, SEQ ID NO: 1; YjgD, SEQ ID NO: 3) (Bacillus subtilis, UniProt O34720). Conditions: formate oxidation, benzyl viologen as artificial electron acceptor, 25 mM CHES pH 10, 25°C. The protocol:
FDH activity was determined using an Avaspec-2048L spectrometer (Avantes), inside an anaerobic glovebox filled with an atmosphere of 100% N2. The experiments were carried out at room temperature (25°C) with stirring.
For formate::benzyl viologen OR measurements, the reduction of 17.5 mM benzyl viologen (BV) was monitored at 600 nm (ε600 nm BV^+ = 7.0945 mM^-1 cm^-1) in 25 mM CHES pH 10 after addition of 50 mM sodium formate. One unit of oxidizing activity is defined as the amount of FDH capable of oxidizing 1 µmol of formate par min per mg of enzyme.
First the yjgCD operon was expressed under the control of an inducible promoter and the YjgC protein to which a 6-histidine tag was added at the N-terminus was purified.

The target of assay [2] is T1, YjgC 6his-tagged in N-terminal (His-YjgC), Bacillus subtilis 168 (Bacillus subtilis 168, UniProt O34720 1-985).
T1 construct: Expressed from the yjgCD operon under a xylose inducible promoter in B. subtilis strain 4088 and purified on Ni-NTA; Carries Mo-bisPGD and Fe-S cofactors; also called 6his-YjgC; catalytic subunit of YjgCD; not shown: N-terminal 6-his tag followed by a TEV cleavage site
T1 sequence: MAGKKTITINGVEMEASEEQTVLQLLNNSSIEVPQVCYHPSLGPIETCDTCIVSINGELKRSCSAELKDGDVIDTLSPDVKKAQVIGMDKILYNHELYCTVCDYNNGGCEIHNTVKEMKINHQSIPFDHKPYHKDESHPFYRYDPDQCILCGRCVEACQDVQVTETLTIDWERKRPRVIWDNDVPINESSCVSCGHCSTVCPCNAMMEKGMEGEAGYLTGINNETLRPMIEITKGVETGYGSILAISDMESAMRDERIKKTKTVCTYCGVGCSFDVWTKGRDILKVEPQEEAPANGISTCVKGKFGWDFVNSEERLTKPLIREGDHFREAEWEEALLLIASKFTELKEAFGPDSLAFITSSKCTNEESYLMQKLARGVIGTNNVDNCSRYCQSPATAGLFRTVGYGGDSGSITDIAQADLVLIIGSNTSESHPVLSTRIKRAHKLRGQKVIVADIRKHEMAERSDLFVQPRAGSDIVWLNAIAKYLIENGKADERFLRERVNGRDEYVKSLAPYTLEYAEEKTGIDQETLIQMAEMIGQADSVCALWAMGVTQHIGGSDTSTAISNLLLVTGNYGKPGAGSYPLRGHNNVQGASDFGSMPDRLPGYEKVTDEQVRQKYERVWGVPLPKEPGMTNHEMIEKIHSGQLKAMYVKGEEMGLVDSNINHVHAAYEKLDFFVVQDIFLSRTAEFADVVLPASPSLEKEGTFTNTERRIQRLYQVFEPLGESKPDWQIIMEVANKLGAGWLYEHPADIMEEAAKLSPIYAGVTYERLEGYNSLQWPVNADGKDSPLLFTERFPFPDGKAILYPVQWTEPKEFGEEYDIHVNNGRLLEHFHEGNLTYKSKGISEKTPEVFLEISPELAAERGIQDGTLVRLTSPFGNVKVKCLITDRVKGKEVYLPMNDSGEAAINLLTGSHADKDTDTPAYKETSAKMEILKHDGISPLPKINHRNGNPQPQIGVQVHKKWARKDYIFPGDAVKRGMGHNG
As to the kind of experiment: Ni-NTA affinity purification of His-YjgC, Coomassie-stained SDS-PAGE.

Take formate: the Kcat in assay [1] (anaerobic, YjgCD heterodimer MW 132 kDa) is given as 96,1 ± 4 s^-1. For the same molecule, in assay [1] (read-out: KM formate, anaerobic (100% N2)), the Km is 5.1 mM.

B1: YjgD protein of Bacillus subtilis 168 (other)
chain: MAKAIKRIQKIEVTEEDQRKRDLREIEDALIDHKEAILETLHMLGHMNERGVLPLLRGLFGQGDKVLDILVKKADTEETANTLKNLLLLFGTLGMLDVKQLEPLILKVNAGVASAVEQKNSEEKTGYFDIIRSLKDPEINKSITLLFSFLKGMGQDTKELERTTQPPEHQKHHQEPREKRGMNKRD
notes: Untagged and co-expressed with His-YjgC from the yjgCD operon; Predicted monomeric mass 21.3 kDa; also called partner subunit of YjgCD
For B1, the binding result in assay [2] is “binds”.
